Test results from US5618795A, “Dibekacin derivatives and arbekacin derivatives active against resistant bacteria, and the production thereof” (Zaidan Hojin Biseibutsu Kagaku Kenkyu Kai, priority 1992, dated 1997).
Converted amounts (≈) assume the structure as drawn. Like-named read-outs stand apart in the source and are kept apart here.

Assays:
Solubility in water = assay type: physicochemical
[1] = Acute toxicity, single intravenous administration to mice; assay type: in vivo; conditions: mouse, in vivo; single intravenous administration; mice (ICR-strain, 4 weeks old, female); observations for two weeks; read-out: LD50
Description: 50% Lethal dosages (LD50, observations for two weeks) of the new compounds of this invention as estimated upon single intravenous administration to mice (ICR-strain, 4 weeks old, female) are as follows:
50% Lethal dosages (LD50, observations for two weeks) of the new compounds of general formula (XVI) according to the seventh aspect of this invention as estimated upon single intravenous administration to mice (ICR-strain, 4 weeks old, female) are as follows: […]

[2] = tested on: clinically isolated strains of MRSA; test: Antibacterial MIC spectra against 50 clinically isolated strains of MRSA; assay type: cell-based, methicillin-resistant Staphylococcus aureus; conditions: Staphylococcus aureus; for MIC: read-out: Antibacterial MIC spectra; for MIC50: 50% of the 50 MRSA strains inhibited, read-out: MIC50; for MIC90: 90% of the 50 MRSA strains inhibited, read-out: MIC90
Protocol: (§1) Minimum growth inhibitory concentrations (MIC) of each of 2"-amino-2"-deoxyarbekacin (Compound Ia), 2"-amino-5,2"-dideoxyarbekacin (Compound Ib), 2"-amino-2"-deoxydibekacin (Compound IIa) and 2"-amino-5,2"-dideoxydibekacin (Compound IIb) against various bacteria (20 strains) and against clinically isolated strains of MRSA (50 strains) were determined by standard serial dilution method on Muller-Hinton's agar medium (as estimated after cultivating at 27° C. for 18 hours), and the test results obtained are shown in TABLE 3 and TABLE 4, respectively.
Note:- MIC50 or MIC90 represents the concentration of tested
active compound at which 50% or 90% of the total numbers of the bacterial
strains tested were inhibited from their growth. DKB denotes dibekacin,
(§2) Minimum growth inhibitory concentrations (MIC) of each of 2"-amino-5,2"-dideoxy-5-epi-fluoroarbekacin (Compound XVIa) and 2"-amino-5,2"-dideoxy-5-epi-aminoarbekacin (Compound XVIb) against various bacteria (18 strains) and against clinically isolated strains of MRSA (50 strains) were determined by standard serial dilution method on Muller-Hinton's agar medium (as estimated after cultivation at 27° C. for 18 hours), and the test results obtained are shown in TABLE 5 and TABLE 6, respectively.

Serratia marcescens = test: MIC by standard serial dilution method on Muller-Hinton's agar; assay type: cell-based
Protocol: as §1, §2

E. coli K-12 ML1629 = test: as above; assay type: cell-based; conditions: Escherichia coli
Protocol: as §1, §2

[3] = tested on: Klebsiella pneumoniae PCI602; test: as above; assay type: cell-based; conditions: 18 hours, read-out: MIC
Protocol: as §1, §2

Escherichia coli NIHJ = test: as above; assay type: cell-based; conditions: 18 hours
Protocol: as §1, §2

[4] = tested on: Shigella dysenteriae JSI1910; test: as above; assay type: cell-based; conditions: JSI1910, 18 h
Protocol: as §1, §2

[5] = tested on: Pseudomonas aeruginosa A3; test: as above; assay type: cell-based; conditions: 18 hours, read-out: MIC
Protocol: as §1, §2

Salmonella typhi T-63 = test: as above; assay type: cell-based; conditions: Salmonella enterica, 18 hours
Protocol: as §1, §2

S. epidermidis 109 = test: as above; assay type: cell-based; conditions: Staphylococcus epidermidis, 109, 27° C., 18 hours, read-out: MIC
Protocol: as §1, §2

E. coli K-12 LA290 R55 = test: as above; assay type: cell-based; conditions: Escherichia coli, K12LA290R55, 18 h
Protocol: as §1, §2

P. aeruginosa TI-13 = test: as above; assay type: cell-based; conditions: Pseudomonas aeruginosa
Protocol: as §1, §2

Bacillus subtilis PCI219 = test: as above; assay type: cell-based; conditions: 18 hours
Protocol: as §1, §2

S. aureus Smith = test: as above; assay type: cell-based; conditions: Staphylococcus aureus, 27° C., 18 hours
Protocol: as §1, §2

[6] = tested on: Providencia rettgeri GN311; test: as above; assay type: cell-based; conditions: 18 hours, read-out: MIC
Protocol: as §1, §2

[7] = tested on: Staphylococcus aureus FDA209P; test: as above; assay type: cell-based; conditions: 18 hours
Protocol: as §1, §2

Proteus vulgaris OX19 = test: as above; assay type: cell-based; conditions: 18 hours, read-out: MIC
Protocol: as §1, §2

E. coli JR66/W677 = test: as above; assay type: cell-based; conditions: Escherichia coli, JR66/W677, 18 h
Protocol: as §1, §2

P. aeruginosa PST1 = test: as above; assay type: cell-based; conditions: Pseudomonas aeruginosa, 18 hours
Protocol: as §1, §2

P. aeruginosa H9 = test: as above; assay type: cell-based; conditions: Pseudomonas aeruginosa
Protocol: as §1, §2

B. cereus ATCC10702 = test: as above; assay type: cell-based; conditions: Bacillus cereus, ATCC10702, 18 h
Protocol: as §1

E. coli K-12 ML1410 = test: as above; assay type: cell-based; conditions: Escherichia coli, K12ML1410; Table 3; 27° C., 18 hours
Protocol: as §1

[8] = TI13, Table 5, 27° C., 18 hours, read-out: MIC

Row | Structure (SMILES) | Solubility (Solubility in water) | LD50 at 336 h [1] [mg/kg] | MIC ([2]; MRSA, 18 h) [µg/mL] | MIC50 ([2]; 27° C., 18 hours) [µg/mL] | MIC90 ([2]; 27° C., 18 hours) [µg/mL] | MIC (Serratia marcescens; 18 h) [µg/mL] | MIC [4] [µg/mL] | MIC (E. coli K-12 LA290 R55) [µg/mL] | MIC (E. coli JR66/W677) [µg/mL] | MIC (E. coli K-12 ML1629; K12ML1629, 18 h) [µg/mL] | MIC ([3]; PCI602, Table 5, 27° C.) [µg/mL] | MIC (Escherichia coli NIHJ; Table 5, 27° C.) [µg/mL] | MIC ([5]; A3, Table 5, 27° C.) [µg/mL] | MIC (Salmonella typhi T-63; Table 5, 27° C.) [µg/mL] | MIC (S. epidermidis 109; Table 5) [µg/mL] | MIC (P. aeruginosa TI-13; [8]) [µg/mL] | MIC (Bacillus subtilis PCI219; Table 5, 27° C.) [µg/mL] | MIC (S. aureus Smith; Table 5) [µg/mL] | MIC ([6]; GN311, Table 5, 27° C.) [µg/mL] | MIC ([7]; Table 5, 27° C.) [µg/mL] | further results
1 | NCC[C@H](O)C(=O)N[C@@H]1C[C@H](N)[C@@H](O[C@H]2O[C@H](CN)CC[C@H]2N)[C@H](O)[C@H]1O[C@H]1O[C@H](CO)[C@@H](O)[C@H](N)[C@H]1N [Compound Ia, 2"-Amino-2"-deoxyarbekacin] | easily soluble in water | > 100 | 0.2 to 3.13 (≈ 0.363 to 5.67 µM) | 0.78 (≈ 1.41 µM) | 1.56 (≈ 2.83 µM) | 3.13 (≈ 5.67 µM) | 3.13 (≈ 5.67 µM) | 0.78 (≈ 1.41 µM) | 3.13 (≈ 5.67 µM) |  |  |  |  |  |  |  |  |  |  |  | MIC (E. coli K-12 ML1629; K12ML1629, Table 3, 27° C., 18 hours, read-out: MIC): 3.13 µg/mL (≈ 5.67 µM); MIC ([3]; PCI602, Table 3, 27° C.): 1.56 µg/mL (≈ 2.83 µM); MIC (Escherichia coli NIHJ; Table 3, 27° C.): 0.78 µg/mL (≈ 1.41 µM); MIC ([5]; A3, Table 3, 27° C.): 1.56 µg/mL (≈ 2.83 µM); MIC (Salmonella typhi T-63; Table 3, 27° C.): 0.78 µg/mL (≈ 1.41 µM); MIC (S. epidermidis 109; Table 3): 0.78 µg/mL (≈ 1.41 µM); MIC (P. aeruginosa TI-13; TI13, 18 h): 3.13 µg/mL (≈ 5.67 µM); MIC (Bacillus subtilis PCI219; Table 3, 27° C.): 0.2 µg/mL (≈ 0.363 µM); MIC (S. aureus Smith; Table 3): ≤ 0.2 µg/mL; MIC ([6]; GN311, Table 3, 27° C.): 1.56 µg/mL (≈ 2.83 µM); MIC ([7]; Table 3, 27° C.): 0.39 µg/mL (≈ 0.707 µM); MIC (Proteus vulgaris OX19; OX19, Table 3, 27° C.): 1.56 µg/mL (≈ 2.83 µM); MIC (P. aeruginosa PST1; Table 3, 27° C.): 12.5 µg/mL (≈ 22.7 µM); MIC (P. aeruginosa H9; H9, Table 3, 27° C., 18 hours, read-out: MIC): 6.25 µg/mL (≈ 11.3 µM); MIC (B. cereus ATCC10702): 3.13 µg/mL (≈ 5.67 µM); MIC (E. coli K-12 ML1410): 1.56 µg/mL (≈ 2.83 µM)
2 | NCC[C@H](O)C(=O)N[C@@H]1C[C@H](N)[C@@H](O[C@H]2O[C@H](CN)CC[C@H]2N)[C@@H](F)[C@H]1O[C@H]1O[C@H](CO)[C@@H](O)[C@H](N)[C@H]1N [Compound XVIa, 2"-Amino-5,2"-dideoxy-5-epi-fluoroarbekacin] | easily soluble in water | > 100 | 0.39 to 3.13 (≈ 0.704 to 5.65 µM) | 0.78 (≈ 1.41 µM) | 1.56 (≈ 2.82 µM) |  | 3.13 (≈ 5.65 µM) | 1.56 (≈ 2.82 µM) | 3.13 (≈ 5.65 µM) | 3.13 (≈ 5.65 µM) | 1.56 (≈ 2.82 µM) | 0.78 (≈ 1.41 µM) | 0.78 (≈ 1.41 µM) | 0.78 (≈ 1.41 µM) | 0.78 (≈ 1.41 µM) | 1.56 (≈ 2.82 µM) | 0.39 (≈ 0.704 µM) | ≤ 0.2 | 1.56 (≈ 2.82 µM) | 0.78 (≈ 1.41 µM) | MIC (Serratia marcescens; Table 5, 27° C., 18 hours, read-out: MIC): 1.56 µg/mL (≈ 2.82 µM); MIC (Proteus vulgaris OX19; OX19, Table 5, 27° C.): 1.56 µg/mL (≈ 2.82 µM); MIC (P. aeruginosa PST1; Table 5, 27° C.): 12.5 µg/mL (≈ 22.6 µM); MIC (P. aeruginosa H9; H9, 18 h): 3.13 µg/mL (≈ 5.65 µM)
3 | NCC[C@H](O)C(=O)N[C@@H]1C[C@H](N)[C@@H](O[C@H]2O[C@H](CN)CC[C@H]2N)[C@@H](N)[C@H]1O[C@H]1O[C@H](CO)[C@@H](O)[C@H](N)[C@H]1N [Compound XVIb, 2"-amino-5,2"-dideoxy-5-epi-aminoarbekacin] | easily soluble in water | > 100 |  | 0.78 (≈ 1.42 µM) | 1.56 (≈ 2.83 µM) | 3.13 (≈ 5.68 µM) | 3.13 (≈ 5.68 µM) | 1.56 (≈ 2.83 µM) | 3.13 (≈ 5.68 µM) | 1.56 (≈ 2.83 µM) | 1.56 (≈ 2.83 µM) | 0.78 (≈ 1.42 µM) | 0.39 (≈ 0.708 µM) | 0.78 (≈ 1.42 µM) | 0.39 (≈ 0.708 µM) | 1.56 (≈ 2.83 µM) | ≤ 0.2 | ≤ 0.2 | 1.56 (≈ 2.83 µM) | ≤ 0.2 | MIC ([2]; range over 50 clinically isolated strains of MRSA, 27° C., 18 hours): 0.39 to 1.56 µg/mL (≈ 0.708 to 2.83 µM); MIC (Proteus vulgaris OX19; OX19, Table 5, 27° C.): 1.56 µg/mL (≈ 2.83 µM); MIC (P. aeruginosa PST1; Table 5, 27° C.): 6.25 µg/mL (≈ 11.4 µM); MIC (P. aeruginosa H9; H9, 18 h): 3.13 µg/mL (≈ 5.68 µM)
4 | NC[C@@H]1CC[C@@H](N)[C@@H](O[C@H]2[C@H](O)[C@@H](O[C@H]3O[C@H](CO)[C@@H](O)[C@H](N)[C@H]3O)[C@H](N)C[C@@H]2N)O1 [DKB, 3',4'-dideoxykanamycin B, reference compound] |  |  |  | 50 (≈ 111 µM) | > 100 |  |  |  |  |  |  |  |  |  |  |  |  |  |  |  | 
